Measured values as given in ChEMBL document CHEMBL1641373, “Trishomocubane as a scaffold for the development of selective dopamine transporter (DAT) ligands” (Bioorg Med Chem Lett, 2011).
pKi: −log10 of the molar value.

What was measured:
[1] = Inhibition of GABAA receptor at 10 uM
[2] = target: 5-hydroxytryptamine receptor 1E (Homo sapiens) (UniProt P28566); test: Inhibition of 5HT1E receptor at 10 uM
[3] = target: Histamine H3 receptor (Homo sapiens) (UniProt Q9Y5N1); test: Inhibition of H3 receptor at 10 uM
Histamine H3 receptor (Homo sapiens), sequence (Q9Y5N1 whole entry): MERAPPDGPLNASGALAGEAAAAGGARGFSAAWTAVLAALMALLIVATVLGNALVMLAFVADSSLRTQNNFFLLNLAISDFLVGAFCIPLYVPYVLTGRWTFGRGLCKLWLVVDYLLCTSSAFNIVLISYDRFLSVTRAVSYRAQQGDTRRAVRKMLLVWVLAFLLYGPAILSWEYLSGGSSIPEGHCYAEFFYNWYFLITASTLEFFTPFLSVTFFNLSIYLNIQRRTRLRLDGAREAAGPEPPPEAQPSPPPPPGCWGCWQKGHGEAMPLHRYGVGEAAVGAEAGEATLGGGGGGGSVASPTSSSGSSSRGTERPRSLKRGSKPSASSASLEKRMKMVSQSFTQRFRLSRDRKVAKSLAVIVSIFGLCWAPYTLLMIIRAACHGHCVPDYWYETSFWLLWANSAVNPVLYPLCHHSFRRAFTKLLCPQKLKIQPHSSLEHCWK

[4] = target: T1, 5-hydroxytryptamine receptor 1A (Homo sapiens) (UniProt P08908); test: Inhibition of 5HT1A receptor at 10 uM
T1 sequence (whole entry): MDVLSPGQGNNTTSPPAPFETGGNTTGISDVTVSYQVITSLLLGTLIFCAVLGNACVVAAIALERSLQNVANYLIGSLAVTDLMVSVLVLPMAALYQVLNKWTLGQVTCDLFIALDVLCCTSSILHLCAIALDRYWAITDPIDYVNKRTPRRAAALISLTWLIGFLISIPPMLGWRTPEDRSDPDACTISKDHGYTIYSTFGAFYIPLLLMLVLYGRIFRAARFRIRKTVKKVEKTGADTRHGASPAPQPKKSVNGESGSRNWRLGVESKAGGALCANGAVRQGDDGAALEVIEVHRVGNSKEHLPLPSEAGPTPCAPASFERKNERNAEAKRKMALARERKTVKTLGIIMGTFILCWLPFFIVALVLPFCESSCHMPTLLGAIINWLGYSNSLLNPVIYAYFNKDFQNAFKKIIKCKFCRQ

[5] = target: T2, 5-hydroxytryptamine receptor 2C (Homo sapiens) (UniProt P28335); test: Inhibition of 5HT2C receptor at 10 uM
T2 sequence (whole entry): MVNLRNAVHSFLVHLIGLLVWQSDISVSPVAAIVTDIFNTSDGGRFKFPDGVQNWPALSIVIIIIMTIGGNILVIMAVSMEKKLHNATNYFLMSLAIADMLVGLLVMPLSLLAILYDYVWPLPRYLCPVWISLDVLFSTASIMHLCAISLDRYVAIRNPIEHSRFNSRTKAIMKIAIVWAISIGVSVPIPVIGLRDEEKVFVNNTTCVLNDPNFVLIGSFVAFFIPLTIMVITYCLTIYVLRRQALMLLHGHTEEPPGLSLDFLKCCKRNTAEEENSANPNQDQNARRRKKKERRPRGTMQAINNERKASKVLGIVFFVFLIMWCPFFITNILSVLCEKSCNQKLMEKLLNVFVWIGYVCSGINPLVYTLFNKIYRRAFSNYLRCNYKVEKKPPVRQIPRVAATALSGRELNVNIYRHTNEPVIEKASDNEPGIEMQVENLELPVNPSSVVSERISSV

[6] = target: Alpha-2C adrenergic receptor (Homo sapiens, UniProt P18825); test: Inhibition of Alpha-2C adrenergic receptor
[7] = target: T3, 5-hydroxytryptamine receptor 2A (Homo sapiens, UniProt P28223); test: Inhibition of 5HT2A receptor
T3 sequence (P28223 whole entry): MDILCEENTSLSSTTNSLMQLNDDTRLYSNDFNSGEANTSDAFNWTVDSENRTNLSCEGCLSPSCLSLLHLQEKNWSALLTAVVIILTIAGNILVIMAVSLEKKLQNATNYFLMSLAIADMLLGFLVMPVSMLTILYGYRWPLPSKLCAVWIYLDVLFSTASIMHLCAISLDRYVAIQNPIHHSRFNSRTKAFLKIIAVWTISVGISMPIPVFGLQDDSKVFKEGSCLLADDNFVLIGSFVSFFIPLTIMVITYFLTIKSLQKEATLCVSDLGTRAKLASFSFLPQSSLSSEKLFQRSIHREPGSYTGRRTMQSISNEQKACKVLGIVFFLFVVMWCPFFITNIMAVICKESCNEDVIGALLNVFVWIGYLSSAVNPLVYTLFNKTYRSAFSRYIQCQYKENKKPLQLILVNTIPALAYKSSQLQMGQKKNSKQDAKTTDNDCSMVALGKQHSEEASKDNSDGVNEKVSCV

[8] = target: Alpha-2B adrenergic receptor (Homo sapiens) (UniProt P18089); test: Inhibition of alpha2B adrenergic receptor at 10 uM
[9] = target: D(1A) dopamine receptor (Homo sapiens) (UniProt P21728); test: Inhibition of dopamine D1 receptor at 10 uM
D(1A) dopamine receptor (Homo sapiens), sequence (P21728 whole entry): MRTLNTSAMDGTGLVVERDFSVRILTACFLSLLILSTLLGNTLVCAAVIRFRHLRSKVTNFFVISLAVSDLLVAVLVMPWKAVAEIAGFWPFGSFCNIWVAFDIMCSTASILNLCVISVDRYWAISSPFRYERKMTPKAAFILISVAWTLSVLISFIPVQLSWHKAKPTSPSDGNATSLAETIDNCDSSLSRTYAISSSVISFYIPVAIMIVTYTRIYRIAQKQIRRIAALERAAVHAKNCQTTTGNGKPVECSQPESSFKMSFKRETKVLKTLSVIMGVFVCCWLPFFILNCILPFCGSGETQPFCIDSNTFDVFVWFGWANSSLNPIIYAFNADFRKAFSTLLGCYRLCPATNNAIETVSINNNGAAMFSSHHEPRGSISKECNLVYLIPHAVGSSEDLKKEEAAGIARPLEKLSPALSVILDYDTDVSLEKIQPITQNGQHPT

[10] = target: Sodium-dependent noradrenaline transporter (Homo sapiens, UniProt P23975); test: Displacement of [3H]nisoxetine from human NET expressed in HEK cells; format: cell-based; details: for inhibition: HEK293, concentration not given here
Sodium-dependent noradrenaline transporter, sequence (P23975 whole entry): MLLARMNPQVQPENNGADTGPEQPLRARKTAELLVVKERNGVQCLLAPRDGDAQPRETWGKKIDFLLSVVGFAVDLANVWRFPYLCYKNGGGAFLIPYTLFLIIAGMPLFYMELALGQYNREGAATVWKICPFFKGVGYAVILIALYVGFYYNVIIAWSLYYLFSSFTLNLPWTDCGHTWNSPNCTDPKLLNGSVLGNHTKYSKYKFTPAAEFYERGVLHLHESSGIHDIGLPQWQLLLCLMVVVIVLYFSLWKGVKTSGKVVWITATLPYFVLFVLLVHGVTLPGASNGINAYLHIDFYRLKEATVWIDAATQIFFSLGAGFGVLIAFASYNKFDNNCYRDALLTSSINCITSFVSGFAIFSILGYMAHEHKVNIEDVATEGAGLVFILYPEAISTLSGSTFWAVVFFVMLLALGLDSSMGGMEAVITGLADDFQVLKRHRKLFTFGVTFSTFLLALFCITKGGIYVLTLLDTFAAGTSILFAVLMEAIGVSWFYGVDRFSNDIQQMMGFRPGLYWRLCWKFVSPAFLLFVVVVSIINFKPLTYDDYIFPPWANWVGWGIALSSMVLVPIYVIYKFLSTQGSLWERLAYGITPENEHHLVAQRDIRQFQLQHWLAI

Rattus norvegicus = organism: Rattus norvegicus; test: Inhibition of BZP receptor in rat brain; format: tissue-based; details: concentration not given here
[11] = target: Sigma non-opioid intracellular receptor 1 (Rattus norvegicus, UniProt Q9R0C9); test: Displacement of (+)-[3H]pentazocine from sigma 1 receptor in rat PC12 cells; format: cell-based, PC-12
Sigma non-opioid intracellular receptor 1, sequence (Q9R0C9 whole entry): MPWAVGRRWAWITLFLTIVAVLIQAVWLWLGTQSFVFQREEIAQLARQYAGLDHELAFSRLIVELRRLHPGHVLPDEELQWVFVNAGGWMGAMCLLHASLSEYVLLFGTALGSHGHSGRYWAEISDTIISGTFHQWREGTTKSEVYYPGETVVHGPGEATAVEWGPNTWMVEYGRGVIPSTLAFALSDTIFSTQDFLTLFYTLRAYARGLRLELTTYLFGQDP

[12] = target: Kappa-type opioid receptor (Homo sapiens) (UniProt P41145); test: Inhibition of kappa opioid receptor at 10 uM
Kappa-type opioid receptor (Homo sapiens), sequence (P41145 whole entry): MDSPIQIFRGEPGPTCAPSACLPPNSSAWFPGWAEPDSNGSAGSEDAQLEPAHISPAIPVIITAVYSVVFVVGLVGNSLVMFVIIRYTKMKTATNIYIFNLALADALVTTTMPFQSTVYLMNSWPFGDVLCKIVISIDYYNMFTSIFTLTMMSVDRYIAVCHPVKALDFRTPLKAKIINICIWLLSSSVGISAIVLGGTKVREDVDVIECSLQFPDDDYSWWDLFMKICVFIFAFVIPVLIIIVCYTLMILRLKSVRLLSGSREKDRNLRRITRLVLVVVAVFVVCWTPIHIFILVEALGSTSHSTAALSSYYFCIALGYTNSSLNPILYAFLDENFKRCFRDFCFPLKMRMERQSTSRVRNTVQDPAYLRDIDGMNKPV

[13] = target: Beta-3 adrenergic receptor (Homo sapiens) (UniProt P13945); test: Inhibition of beta3 adrenergic receptor at 10 uM
Beta-3 adrenergic receptor (Homo sapiens), sequence (P13945 whole entry, looked up): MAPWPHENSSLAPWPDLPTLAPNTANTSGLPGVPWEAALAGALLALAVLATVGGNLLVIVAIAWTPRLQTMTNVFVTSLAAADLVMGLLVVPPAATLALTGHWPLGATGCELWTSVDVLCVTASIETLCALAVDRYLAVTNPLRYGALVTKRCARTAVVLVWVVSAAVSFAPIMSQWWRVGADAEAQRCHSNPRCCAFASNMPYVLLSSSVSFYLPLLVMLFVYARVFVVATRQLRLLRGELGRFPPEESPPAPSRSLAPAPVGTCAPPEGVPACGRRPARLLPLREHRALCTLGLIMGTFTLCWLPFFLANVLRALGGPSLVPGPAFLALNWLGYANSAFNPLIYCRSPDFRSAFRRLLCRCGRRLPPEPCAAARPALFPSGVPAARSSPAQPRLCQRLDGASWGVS

[14] = target: T4, 5-hydroxytryptamine receptor 2B (Homo sapiens, UniProt P41595); test: Inhibition of 5HT2B receptor
T4 sequence (P41595 whole entry): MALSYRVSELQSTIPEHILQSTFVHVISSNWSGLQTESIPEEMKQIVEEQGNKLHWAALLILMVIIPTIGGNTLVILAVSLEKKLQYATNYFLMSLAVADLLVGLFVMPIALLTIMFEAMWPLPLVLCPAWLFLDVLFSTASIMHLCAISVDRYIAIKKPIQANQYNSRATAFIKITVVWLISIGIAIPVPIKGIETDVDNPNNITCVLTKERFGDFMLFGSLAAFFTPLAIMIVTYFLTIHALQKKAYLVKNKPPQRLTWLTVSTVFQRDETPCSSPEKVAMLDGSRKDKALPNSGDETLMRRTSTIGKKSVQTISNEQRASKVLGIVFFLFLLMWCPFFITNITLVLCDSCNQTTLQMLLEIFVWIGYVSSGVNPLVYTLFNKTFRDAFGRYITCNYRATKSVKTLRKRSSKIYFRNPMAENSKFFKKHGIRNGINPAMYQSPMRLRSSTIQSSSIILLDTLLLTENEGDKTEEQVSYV

[15] = target: Alpha-2A adrenergic receptor (Homo sapiens, UniProt P08913); test: Inhibition of alpha2A adrenergic receptor
[16] = target: 5-hydroxytryptamine receptor 6 (Homo sapiens, UniProt P50406); test: Inhibition of 5HT6 receptor
D(1B) dopamine receptor [17] = target: T5, D(1B) dopamine receptor (Homo sapiens, UniProt P21918); test: Inhibition of dopamine D5 receptor at 10 uM
T5 sequence (P21918 whole entry): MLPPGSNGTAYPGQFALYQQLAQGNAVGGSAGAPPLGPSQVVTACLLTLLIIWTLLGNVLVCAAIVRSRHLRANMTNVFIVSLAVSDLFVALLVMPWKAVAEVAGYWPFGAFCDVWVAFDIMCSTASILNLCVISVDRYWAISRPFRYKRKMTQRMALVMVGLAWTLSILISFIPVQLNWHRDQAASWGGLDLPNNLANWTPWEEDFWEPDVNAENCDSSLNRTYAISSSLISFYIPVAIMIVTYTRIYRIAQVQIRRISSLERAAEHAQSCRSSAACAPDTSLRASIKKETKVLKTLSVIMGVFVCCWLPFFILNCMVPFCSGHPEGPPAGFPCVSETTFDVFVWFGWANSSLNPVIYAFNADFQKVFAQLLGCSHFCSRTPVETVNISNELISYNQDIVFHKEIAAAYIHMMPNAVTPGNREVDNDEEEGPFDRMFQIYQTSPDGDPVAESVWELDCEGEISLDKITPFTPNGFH

[18] = target: Muscarinic acetylcholine receptor M5 (Homo sapiens, UniProt P08912); test: Inhibition of muscarinic M5 receptor
[19] = target: Muscarinic acetylcholine receptor M3 (Homo sapiens, UniProt P20309); test: Inhibition of muscarinic M3 receptor
[20] = target: Muscarinic acetylcholine receptor M4 (Homo sapiens, UniProt P08173); test: Inhibition of muscarinic M4 receptor
[21] = target: Muscarinic acetylcholine receptor M2 (Homo sapiens, UniProt P08172); test: Inhibition of muscarinic M2 receptor
Histamine H1 receptor [22] = target: T6, Histamine H1 receptor (Homo sapiens, UniProt P35367); test: Inhibition of H1 receptor
T6 sequence (P35367 whole entry): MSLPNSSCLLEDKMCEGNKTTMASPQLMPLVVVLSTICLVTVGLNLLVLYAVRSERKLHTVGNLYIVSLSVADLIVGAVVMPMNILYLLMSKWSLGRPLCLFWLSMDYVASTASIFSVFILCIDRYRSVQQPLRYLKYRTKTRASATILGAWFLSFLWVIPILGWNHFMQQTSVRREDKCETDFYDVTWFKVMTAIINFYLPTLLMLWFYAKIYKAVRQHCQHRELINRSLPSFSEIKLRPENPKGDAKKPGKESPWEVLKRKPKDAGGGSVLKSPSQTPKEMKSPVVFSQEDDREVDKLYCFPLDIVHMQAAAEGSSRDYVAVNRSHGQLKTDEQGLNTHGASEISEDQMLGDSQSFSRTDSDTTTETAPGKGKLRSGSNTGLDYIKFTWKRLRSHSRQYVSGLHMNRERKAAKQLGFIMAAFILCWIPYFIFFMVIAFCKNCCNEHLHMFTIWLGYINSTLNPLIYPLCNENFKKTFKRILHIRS

D(1B) dopamine receptor [23] = target: T5, D(1B) dopamine receptor; test: Inhibition of dopamine D5 receptor
[24] = target: T3, 5-hydroxytryptamine receptor 2A; test: Inhibition of 5HT2A receptor at 10 uM
D(3) dopamine receptor = D(3) dopamine receptor (Homo sapiens, UniProt P35462); test: Inhibition of dopamine D3 receptor at 10 uM
[25] = target: T4, 5-hydroxytryptamine receptor 2B; test: Inhibition of 5HT2B receptor at 10 uM
[26] = target: Alpha-2C adrenergic receptor (Homo sapiens) (UniProt P18825); test: Inhibition of Alpha-2C adrenergic receptor at 10 uM
Histamine H2 receptor = Histamine H2 receptor (Homo sapiens, UniProt P25021); test: Inhibition of H2 receptor at 10 uM
Histamine H1 receptor [27] = target: T6, Histamine H1 receptor; test: Inhibition of H1 receptor at 10 uM

5-hydroxytryptamine receptor 1E (Homo sapiens), sequence (P28566 whole entry): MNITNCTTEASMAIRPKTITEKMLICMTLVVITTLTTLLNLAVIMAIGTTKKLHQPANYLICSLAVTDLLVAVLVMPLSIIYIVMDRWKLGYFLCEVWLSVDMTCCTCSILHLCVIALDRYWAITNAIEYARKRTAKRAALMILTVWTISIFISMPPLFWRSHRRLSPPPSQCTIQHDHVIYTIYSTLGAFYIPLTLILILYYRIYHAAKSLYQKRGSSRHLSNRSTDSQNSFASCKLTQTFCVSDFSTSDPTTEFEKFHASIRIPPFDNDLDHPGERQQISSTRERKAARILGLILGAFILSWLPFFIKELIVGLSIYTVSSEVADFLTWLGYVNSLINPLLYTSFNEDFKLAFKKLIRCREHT

SMILES: CN(CCc1cccc(F)c1)[C@H]1C2C3CC4C5C3CC2C5C41 (stereo partly specified)
- inhibition [1]: < 50%
- inhibition [2]: < 50%
- inhibition [3]: < 50%
- inhibition [4]: < 50%
- inhibition [5]: < 50%
- pKi [6]: 5.68
- pKi [7]: < 5.00
- inhibition [8]: < 50%
- inhibition [9]: < 50%
- inhibition [10]: < 50%
- inhibition (Rattus norvegicus): < 50%
- pKi [11]: 5.93
- inhibition [12]: < 50%
- inhibition [13]: < 50%
- pKi [14]: 5.22

SMILES: Fc1cccc(CCN[C@H]2C3C4CC5C6C4CC3C6C52)c1 (stereo partly specified)
- pKi [15]: 5.12
- pKi [16]: < 5.00
- inhibition [2]: < 50%
- inhibition [3]: < 50%
- inhibition [4]: < 50%
- inhibition [5]: < 50%
- pKi [7]: 5.22
- inhibition [9]: < 50%
- inhibition (D(1B) dopamine receptor [17]): < 50%
- pKi [10]: 5.44
- pKi [18]: 5.74
- pKi [11]: 7.72
- pKi [19]: 5.86
- pKi [20]: 6.15
- inhibition [12]: < 50%
- inhibition [13]: < 50%
- pKi [21]: 5.64
- pKi [14]: 5.16
- pKi (Histamine H1 receptor [22]): 5.62

SMILES: CN(Cc1cccc(F)c1)[C@H]1C2C3CC4C5C3CC2C5C41 (stereo partly specified)
- pKi (D(1B) dopamine receptor [23]): < 5.00
- inhibition [24]: < 50%
- inhibition [1]: < 50%
- inhibition [2]: < 50%
- inhibition [3]: < 50%
- inhibition [4]: < 50%
- inhibition (D(3) dopamine receptor): < 50%
- inhibition [5]: < 50%
- inhibition [8]: < 50%
- inhibition [9]: < 50%
- inhibition [10]: < 50%
- inhibition (Rattus norvegicus): < 50%
- pKi [11]: 5.80
- inhibition [12]: < 50%
- inhibition [25]: < 50%
- inhibition [13]: < 50%
- inhibition [26]: < 50%
- inhibition (Histamine H2 receptor): < 50%

SMILES: Fc1cccc(CN[C@H]2C3C4CC5C6C4CC3C6C52)c1 (stereo partly specified)
- inhibition [24]: < 50%
- inhibition [2]: < 50%
- inhibition [3]: < 50%
- inhibition [4]: < 50%
- inhibition [5]: < 50%
- inhibition [9]: < 50%
- inhibition (D(1B) dopamine receptor [17]): < 50%
- pKi [10]: 5.23
- pKi [11]: 6.70
- inhibition (Histamine H1 receptor [27]): < 50%
- inhibition [12]: < 50%
- inhibition [25]: < 50%
- inhibition [13]: < 50%
- inhibition [26]: < 50%
